Experimental data: ChEMBL document CHEMBL1201862, “PubChem BioAssay data set” (2004)
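Where inhibition never reached the appropriate level, the endpoint shown equals the highest concentration tested. Otherwise, values were interpolated linearly from a five-concentration, 48-hour dose response in 96-well plates. At the GI50, growth is halved.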 The source made the active and inactive calls. Rule as the data show it: active = GI50 up to about 1.1 µM and inactive = higher.

What was measured:
Experiment in all cases: NCI tumour cell line growth inhibition, 48 h
M14 = tested on: M14
MDA-MB-435 = tested on: MDA-MB-435
T47D = tested on: T47D
ACHN = tested on: ACHN
A549 = tested on: A549
UACC-62 = tested on: UACC-62
HL-60 = tested on: HL-60
K562 = tested on: K562
HOP-92 = tested on: HOP-92
OVCAR-3 = tested on: OVCAR-3
MDA-MB-231 = tested on: MDA-MB-231
MCF7 = tested on: MCF7
HCT-116 = tested on: HCT-116
OVCAR-8 = tested on: OVCAR-8
RPMI-8226 = tested on: RPMI-8226
CCRF-CEM = tested on: CCRF-CEM
OVCAR-4 = tested on: OVCAR-4
EKVX = tested on: EKVX
NCI-H522 = tested on: NCI-H522

Row | SMILES | GI50 (M14) | GI50 (MDA-MB-435) | GI50 (T47D) | GI50 (ACHN) | GI50 (A549) | GI50 (UACC-62) | GI50 (HL-60) | GI50 (K562) | GI50 (HOP-92) | GI50 (OVCAR-3) | GI50 (MDA-MB-231) | GI50 (MCF7) | GI50 (HCT-116) | GI50 (OVCAR-8) | GI50 (RPMI-8226) | GI50 (CCRF-CEM) | GI50 (OVCAR-4) | GI50 (EKVX) | GI50 (NCI-H522)
1 | CCOC(=O)c1ccc2c(c1)nc1n2C(c2c(F)cccc2F)SC1 (configuration not stated) | 27.9 µM (inactive) | 30.6 µM (inactive) | 12.8 µM (inactive) | 18.3 µM (inactive) | 23.6 µM (inactive) | 25.4 µM (inactive) | 24.4 µM (inactive) | 29.1 µM (inactive) | 40.6 µM (inactive) | 17.8 µM (inactive) | > 100 µM (inactive) | 19.9 µM (inactive) | 15.6 µM (inactive) | 21.6 µM (inactive) | 21.8 µM (inactive) | 33.5 µM (inactive) | 46.6 µM (inactive) |  | 
2 | CCOC(=O)c1cnc(-n2[nH]c(C)c(CCO)c2=O)[nH]c1=O | > 100 µM (inactive) | > 100 µM (inactive) | > 100 µM (inactive) | > 100 µM (inactive) | > 100 µM (inactive) | > 100 µM (inactive) | > 100 µM (inactive) | > 100 µM (inactive) | > 100 µM (inactive) | > 100 µM (inactive) | > 100 µM (inactive) | > 100 µM (inactive) | > 100 µM (inactive) | > 100 µM (inactive) | > 100 µM (inactive) | > 100 µM (inactive) | > 100 µM (inactive) | > 100 µM (inactive) | 
3 | C/C=C1\C(=O)OC2CCN3CCC(COC(=O)C(C)(O)C(C)C1O)C23 (configuration not stated) | > 100 µM (inactive) | > 100 µM (inactive) | > 100 µM (inactive) | > 100 µM (inactive) | > 100 µM (inactive) | > 100 µM (inactive) | > 100 µM (inactive) | > 100 µM (inactive) | > 100 µM (inactive) |  | > 100 µM (inactive) | > 100 µM (inactive) | > 100 µM (inactive) | > 100 µM (inactive) |  |  | > 100 µM (inactive) | > 100 µM (inactive) | > 100 µM (inactive)
4 | Nc1ccc(/C=C/c2ccc3cccnc3c2)cc1 | > 100 µM (inactive) | > 100 µM (inactive) | 92.9 µM (inactive) | 52.5 µM (inactive) | > 100 µM (inactive) | > 100 µM (inactive) | 4.61 µM (inactive) | > 100 µM (inactive) | > 100 µM (inactive) | > 100 µM (inactive) | > 100 µM (inactive) | 5.81 µM (inactive) | > 100 µM (inactive) | > 100 µM (inactive) | 2.26 µM (inactive) | > 100 µM (inactive) |  | > 100 µM (inactive) | 
5 | CCOC(=O)c1ccc2c(c1)Cc1cc([N+](=O)[O-])ccc1-2 | 97.1 µM (inactive) | 43.1 µM (inactive) | 87.1 µM (inactive) | 29.9 µM (inactive) | 33.7 µM (inactive) | 50 µM (inactive) | 76.2 µM (inactive) | 55 µM (inactive) | 26.1 µM (inactive) | 46.6 µM (inactive) | 32.3 µM (inactive) | 19.3 µM (inactive) | 59.4 µM (inactive) | 42 µM (inactive) | 41.7 µM (inactive) | 61.2 µM (inactive) | 15.7 µM (inactive) | 12.3 µM (inactive) | 
6 | CSc1ncnc2c1cnn2Cc1cnnn1COCC(O)CO (configuration not stated) | > 100 µM (inactive) | > 100 µM (inactive) | > 100 µM (inactive) | > 100 µM (inactive) | > 100 µM (inactive) | > 100 µM (inactive) | > 100 µM (inactive) | > 100 µM (inactive) |  | > 100 µM (inactive) | > 100 µM (inactive) | > 100 µM (inactive) | > 100 µM (inactive) | > 100 µM (inactive) | > 100 µM (inactive) | > 100 µM (inactive) | > 100 µM (inactive) | > 100 µM (inactive) | 11.1 µM (inactive)
7 | CCOC(=O)c1ccc(NCc2ccc3nc(OC)c(OC)nc3c2)cc1 | > 100 µM (inactive) | > 100 µM (inactive) | 57.1 µM (inactive) | > 100 µM (inactive) | > 100 µM (inactive) | > 100 µM (inactive) | 47.8 µM (inactive) | > 100 µM (inactive) | 58.3 µM (inactive) | > 100 µM (inactive) | 72.6 µM (inactive) | > 100 µM (inactive) | 92.3 µM (inactive) | 84.7 µM (inactive) |  | > 100 µM (inactive) | 88.7 µM (inactive) | > 100 µM (inactive) | > 100 µM (inactive)
8 | CCN1CCN(c2ccc(Nc3ccnc4ccc5c(nnn5C)c34)cc2)CC1 | 10.7 µM (inactive) | 5.46 µM (inactive) | 16 µM (inactive) | 2.99 µM (inactive) | 7.83 µM (inactive) | 13.7 µM (inactive) | 4.94 µM (inactive) | 3.61 µM (inactive) | 4.8 µM (inactive) | 5.56 µM (inactive) | 8.55 µM (inactive) | 4.44 µM (inactive) | 3.44 µM (inactive) | 13.1 µM (inactive) |  | 4.6 µM (inactive) | 7.23 µM (inactive) | 13.7 µM (inactive) | 1.1 µM (active)
9 | COC(=O)C1(C(=O)OC)C/C(C)=C(/C)SCCCS1 | > 100 µM (inactive) | > 100 µM (inactive) | > 100 µM (inactive) | > 100 µM (inactive) | > 100 µM (inactive) | > 100 µM (inactive) |  | 43.1 µM (inactive) | 49.5 µM (inactive) | 92.7 µM (inactive) | > 100 µM (inactive) | > 100 µM (inactive) | > 100 µM (inactive) | > 100 µM (inactive) |  | > 100 µM (inactive) | > 100 µM (inactive) | > 100 µM (inactive) | > 100 µM (inactive)
10 | Cc1ccc(-n2c(N)c(C#N)c3[nH]nc(N)c3c2=O)cc1 | > 100 µM (inactive) | > 100 µM (inactive) | > 100 µM (inactive) | > 100 µM (inactive) |  | > 100 µM (inactive) | > 100 µM (inactive) | > 100 µM (inactive) | > 100 µM (inactive) |  | > 100 µM (inactive) | > 100 µM (inactive) | > 100 µM (inactive) | > 100 µM (inactive) | > 100 µM (inactive) | > 100 µM (inactive) | > 100 µM (inactive) | 95.1 µM (inactive) | 
11 | COc1ccc(-c2nc(SCC(=O)N/N=C/c3ccc(O)c(OC)c3)[nH]c2-c2ccc(OC)cc2)cc1 | 22.9 µM (inactive) | 32.4 µM (inactive) | 22.7 µM (inactive) | 18.2 µM (inactive) | 34.9 µM (inactive) | 14.1 µM (inactive) | 11.2 µM (inactive) | 20 µM (inactive) | 23.7 µM (inactive) | 18.8 µM (inactive) | 24.7 µM (inactive) | 17.9 µM (inactive) | 17.9 µM (inactive) | 28.9 µM (inactive) |  | 3.44 µM (inactive) | 40.9 µM (inactive) | 33.3 µM (inactive) | 19.2 µM (inactive)
12 | COC(=O)c1c2c(cc3c1CCC3)CCC2 | > 100 µM (inactive) | 70.8 µM (inactive) | 13.3 µM (inactive) | > 100 µM (inactive) | 61.2 µM (inactive) | 51.1 µM (inactive) | 15.5 µM (inactive) | 29.6 µM (inactive) |  | > 100 µM (inactive) | 37.7 µM (inactive) | 38.7 µM (inactive) | 39.6 µM (inactive) | > 100 µM (inactive) | 20.2 µM (inactive) | 20.1 µM (inactive) | 82.2 µM (inactive) | 39.6 µM (inactive) | 46.6 µM (inactive)
13 | C/C(=N/O)c1cccc(Nc2nc3ccc(Cl)cc3c3[nH]c4ccccc4c23)c1 | 1.82 µM (inactive) | 1.81 µM (inactive) | 1.58 µM (inactive) | 0.929 µM (active) | 1.6 µM (inactive) | 1.83 µM (inactive) | 3.07 µM (inactive) | 2.02 µM (inactive) |  | 0.192 µM (active) | 2.59 µM (inactive) | 0.935 µM (active) | 0.205 µM (active) | 1.93 µM (inactive) | 1.66 µM (inactive) | 1.34 µM (inactive) | 1.9 µM (inactive) |  | 1.12 µM (active)
14 | O=C1CC(=O)NC(NN2C(=O)/C(=C/C(=O)c3ccco3)N=C2c2ccccc2)=N1 | 92.3 µM (inactive) | 63.7 µM (inactive) | 70.1 µM (inactive) | > 100 µM (inactive) | > 100 µM (inactive) | 37.7 µM (inactive) |  |  | 24.8 µM (inactive) | 42.4 µM (inactive) | > 100 µM (inactive) | 95.1 µM (inactive) | > 100 µM (inactive) | 44.5 µM (inactive) |  | 20.6 µM (inactive) | 31 µM (inactive) |  | 17.7 µM (inactive)
15 | CCOC(=O)c1ccc(C(=O)C(C(C)=O)C(=O)OC(C)(C)C)n1C (configuration not stated) | > 100 µM (inactive) | > 100 µM (inactive) | > 100 µM (inactive) | > 100 µM (inactive) | > 100 µM (inactive) | > 100 µM (inactive) | 67.9 µM (inactive) | > 100 µM (inactive) |  | > 100 µM (inactive) | > 100 µM (inactive) | > 100 µM (inactive) | > 100 µM (inactive) | > 100 µM (inactive) | > 100 µM (inactive) | 71.3 µM (inactive) | > 100 µM (inactive) | > 100 µM (inactive) | > 100 µM (inactive)
16 | Cc1cc(S(=O)(=O)NC2=NNC(C)CN2)c(S)cc1Cl (configuration not stated) | 27.7 µM (inactive) | 32.2 µM (inactive) | 37.8 µM (inactive) | 46.1 µM (inactive) | 37.9 µM (inactive) | 51.2 µM (inactive) | > 100 µM (inactive) | 27 µM (inactive) |  | 53.7 µM (inactive) | 62.2 µM (inactive) | 35.8 µM (inactive) | 38.4 µM (inactive) | 32.1 µM (inactive) | 20.1 µM (inactive) | 36.9 µM (inactive) | 44.1 µM (inactive) | 96.6 µM (inactive) | 22.3 µM (inactive)
